Data published in patent US20130302442A1, “METHODS OF USING (4S,4AS,5AR,12AS)-4-DIMETHYLAMINO-3,10,12,12A-TETRAHYDROXY-7-[(METHOXY(METHYL)AMINO)-METHYL]-1,11-DIOXO-1,4,4A,5,5A,6,11,12A-OCTAHYDRO-NAPHTHACENE-2-CARBOXYLIC ACID AMIDE” (priority 2012, published 2013).
Values after ≈ are worked out from the molar mass of the structure shown. Where two headings read alike, the source gives them in different places.

Legend:
Chlamydia trachomatis [1] = test: In vitro susceptibility testing of Chlamydia trachomatis in HEp-2 cells (first study); type: cell-based; conditions: Chlamydia trachomatis, C. trachomatis strains, read-out: MIC at which 90% of the strains were inhibited (MIC90)
Chlamydia pneumoniae = test: Susceptibility testing (MIC, MBC) of 10 isolates of C. pneumoniae in HEp-2 cells; type: cell-based
Chlamydia trachomatis [2] = test: Susceptibility testing (MIC, MBC) of 10 isolates of C. trachomatis in HEp-2 cells; type: cell-based
Helicobacter pylori [3] = conditions: H. pylori reference strain 3718, ATCC 43504; Clinical and Laboratory Standards Institute quality control range; cited from earlier work
Helicobacter pylori [4] = test: In vitro MIC against multiple isolates of H. pylori; type: cell-based; conditions: for MIC: read-out: MIC
Clostridium perfringens = test: microbe, parasite or virus in culture; type: cell-based
Bifidobacterium bifidum = test: In vitro MIC testing against anaerobic bacteria; type: cell-based; conditions: ATCC15696; Bifidobacterium bifidum 3965, ATCC 15696
E. faecium = test: In vitro MIC testing, antibacterial spectrum of activity; type: cell-based; conditions: Enterococcus faecium
P. aeruginosa = test: as above; type: cell-based; conditions: Pseudomonas aeruginosa; P. aeruginosa (11 isolates)
Lactobacillus plantarum = test: In vitro MIC testing against anaerobic bacteria; type: cell-based; conditions: Lactiplantibacillus plantarum, ATCC39268; Lactobacillus plantarum 2791, ATCC 39268
Bifidobacterium infantis = test: In vitro MIC testing against anaerobic bacteria; type: cell-based; conditions: ATCC15702; Bifidobacterium infantis 3966, ATCC 15702
[5] = test system: Lactobacillus acidophilus; test: In vitro MIC testing against anaerobic bacteria; type: cell-based; conditions: Lactobacillus acidophilus 0681
E. coli = test: In vitro MIC testing, antibacterial spectrum of activity; type: cell-based; conditions: Escherichia coli; E. coli (33 isolates); read-out: MIC90
Bifidobacterium brevi = test: In vitro MIC testing against anaerobic bacteria; type: cell-based; conditions: ATCC15698; Bifidobacterium brevi 3967, ATCC 15698
S. haemolyticus = test: In vitro MIC testing, antibacterial spectrum of activity; type: cell-based; conditions: Staphylococcus haemolyticus; S. haemolyticus (33 isolates); read-out: MIC90
[6] = test system: Prevotella melaninogenica; test: In vitro MIC testing against anaerobic bacteria; type: cell-based; conditions: Prevotella melaninogenica 3443, read-out: MIC
Bacteroides ovatus = test: In vitro MIC testing against anaerobic bacteria; type: cell-based; conditions: Bacteroides ovatus 3508, read-out: MIC
Veillonella parvula = test: In vitro MIC testing against anaerobic bacteria; type: cell-based; conditions: ATCC17745; Veillonella parvula 1272, ATCC 17745
K. pneumoniae = test: In vitro MIC testing, antibacterial spectrum of activity; type: cell-based
P. granulosum = test: as above; type: cell-based; conditions: P. granulosum [clinical isolates] (3 isolates)
P. avidum = test: as above; type: cell-based; conditions: P. avidum [clinical isolates] (4 isolates)
Salmonella Spp. = test: as above; type: cell-based; conditions: Salmonella
Prevotella spp. = test: In vitro MIC testing against anaerobic bacteria; type: cell-based
Lactobacillus casei = test: In vitro MIC testing against anaerobic bacteria; type: cell-based; conditions: Lacticaseibacillus casei, ATCC393; Lactobacillus casei 1722, ATCC 393
P. acnes = test: In vitro MIC testing, antibacterial spectrum of activity; type: cell-based, Propionibacterium acnes; conditions: Cutibacterium acnes
[7] = test system: Streptococcus intermedius; test: In vitro MIC testing against anaerobic bacteria; type: cell-based; conditions: ATCC27335; Streptococcus intermedius 1203, ATCC 27335
Bifidobacterium longum = test: In vitro MIC testing against anaerobic bacteria; type: cell-based; conditions: ATCC15707; Bifidobacterium longum 3968, ATCC 15707
E. cloacae = test: In vitro MIC testing, antibacterial spectrum of activity; type: cell-based; conditions: Enterobacter cloacae; E. cloacae (30 isolates)
S. agalactiae = test: as above; type: cell-based; conditions: Streptococcus agalactiae
[8] = Klebsiella pneumoniae, K. pneumoniae (31 isolates)
[9] = P. acnes [clinical isolates] (55 isolates)

In the case of `C[C@H]1COc2c(N3CCN(C)CC3)c(F)cc3c(=O)c(C(=O)O)cn1c23` [Levofloxacin], the MIC90 (Chlamydia trachomatis [1]) is reported as 0.25 µg/mL (≈ 0.692 µM), the “MIC Range” value (Chlamydia pneumoniae; 72 h) is reported as 0.5 µg/mL (≈ 1.38 µM) and the MIC50 (Chlamydia pneumoniae; Chlamydia pneumoniae, 72 h) is reported as 0.5 µg/mL (≈ 1.38 µM). The MIC90 (Chlamydia pneumoniae; Chlamydia pneumoniae, 72 h) was 0.5 µg/mL (≈ 1.38 µM), the MBC (Chlamydia pneumoniae; Chlamydia pneumoniae, after passage, read-out: MBC 90%) was 2 µg/mL (≈ 5.53 µM) and the “MBC 90%” value (Chlamydia pneumoniae; after passage) was 2 µg/mL (≈ 5.53 µM). The “MBC Range” value (Chlamydia pneumoniae; after passage) was 0.125 to 2 µg/mL, the “MIC Range” value (Chlamydia trachomatis [2]; 72 h) was 0.125 to 0.5 µg/mL and the MIC50 (Chlamydia trachomatis [2]; Chlamydia trachomatis, 72 h) was 0.25 µg/mL (≈ 0.692 µM). The MIC90 (Chlamydia trachomatis [2]; Chlamydia trachomatis, 72 h) was 0.25 µg/mL (≈ 0.692 µM), the MBC (Chlamydia trachomatis [2]; Chlamydia trachomatis, after passage, read-out: MBC 90%) was 0.5 µg/mL (≈ 1.38 µM) and the “MBC Range” value (Chlamydia trachomatis [2]; after passage) was 0.125 to 1 µg/mL.

For `Cc1ncc([N+](=O)[O-])n1CCO` [Metronidazole, metronidazole], the “MIC, CLSI Quality Control Range” value (Helicobacter pylori [3]) is listed as 64 to 256 µg/mL, the “MIC Range” value (Helicobacter pylori [4]; H. pylori clinical isolate summary) is listed as “≦0.03-64 μg/mL” and the MIC (Helicobacter pylori [4]; Helicobacter pylori, ATCC43504, H. pylori reference strain, culture No. 3718, ATCC 43504) is listed as 64 µg/mL (≈ 374 µM). It also gave an MIC (Helicobacter pylori [4]; Helicobacter pylori, ATCC700824, H. pylori reference strain, culture No. 3719, ATCC 700824) of 1 µg/mL (≈ 5.84 µM), an MIC (Helicobacter pylori [4]; Helicobacter pylori, ATCCBAA945, H. pylori reference strain, culture No. 3720, ATCC BAA-945) of 1 µg/mL (≈ 5.84 µM) and an MIC (Helicobacter pylori [4]; Helicobacter pylori, H. pylori clinical isolate, culture No. 4368) of 0.25 µg/mL (≈ 1.46 µM). For the same compound, the MIC (Helicobacter pylori [4]; Helicobacter pylori, H. pylori clinical isolate, culture No. 4369) was 0.5 µg/mL (≈ 2.92 µM), the MIC (Helicobacter pylori [4]; Helicobacter pylori, H. pylori clinical isolate, culture No. 4370) was 0.12 µg/mL (≈ 0.701 µM) and the MIC (Helicobacter pylori [4]; Helicobacter pylori, H. pylori clinical isolate, culture No. 4371) was 1 µg/mL (≈ 5.84 µM). The MIC (Helicobacter pylori [4]; Helicobacter pylori, H. pylori clinical isolate, culture No. 4372) was 0.25 µg/mL (≈ 1.46 µM), the MIC (Helicobacter pylori [4]; Helicobacter pylori, H. pylori clinical isolate, culture No. 4374) was 0.12 µg/mL (≈ 0.701 µM) and the MIC (Helicobacter pylori [4]; Helicobacter pylori, H. pylori clinical isolate, culture No. 4375) was 0.12 µg/mL (≈ 0.701 µM). The MIC (Helicobacter pylori [4]; Helicobacter pylori, H. pylori clinical isolate, culture No. 4377) was 1 µg/mL (≈ 5.84 µM), the MIC (Helicobacter pylori [4]; Helicobacter pylori, H. pylori clinical isolate, culture No. 4503) was ≤ 0.03 µg/mL and the MIC (Helicobacter pylori [4]; Helicobacter pylori, H. pylori clinical isolate, culture No. 4504) was ≤ 0.03 µg/mL. For the same compound, the MIC90 (Helicobacter pylori [4]; Helicobacter pylori, H. pylori, MIC for 90% of clinical test isolates, read-out: MIC90) was 1 µg/mL (≈ 5.84 µM) and the MIC50 (Helicobacter pylori [4]; Helicobacter pylori, read-out: MIC50) was 0.12 µg/mL (≈ 0.701 µM).

For `CN(C)[C@@H]1C(O)=C(C(N)=O)C(=O)[C@@]2(O)C(O)=C3C(=O)c4c(O)cccc4[C@@](C)(O)[C@H]3C[C@@H]12` [Tetracycline, tetracycline], the MIC (Clostridium perfringens) was > 16 µg/mL, the MIC (Clostridium perfringens; Clostridium perfringens 3518) was > 16 µg/mL and the MIC (Bifidobacterium bifidum) was 1 µg/mL (≈ 2.25 µM). For the same compound, the MIC50 (E. faecium) was 1 µg/mL (≈ 2.25 µM), the MIC90 (E. faecium) was > 64 µg/mL and the MIC50 (E. faecium; VRE) was 2 µg/mL (≈ 4.5 µM). For the same compound, the MIC90 (E. faecium; VRE) was > 64 µg/mL, the MIC50 (P. aeruginosa) was 64 µg/mL (≈ 144 µM) and the MIC (Lactobacillus plantarum) was 2 µg/mL (≈ 4.5 µM). The MIC (Bifidobacterium infantis) was 1 µg/mL (≈ 2.25 µM), the MIC [5] was 2 µg/mL (≈ 4.5 µM) and the MIC90 (E. coli) was > 64 µg/mL. For the same compound, the MIC (Bifidobacterium brevi) was 1 µg/mL (≈ 2.25 µM), the MIC90 (S. haemolyticus) was > 32 µg/mL and the MIC [6] was 8 µg/mL (≈ 18 µM). The MIC (Bacteroides ovatus) was 0.5 µg/mL (≈ 1.13 µM), the MIC (Veillonella parvula) was 1 µg/mL (≈ 2.25 µM) and the “MIC Range” value (K. pneumoniae; K. pneumoniae [tetS] (7 isolates)) was 0.5 to 4 µg/mL. For the same compound, the MIC50 (K. pneumoniae; [8]) was 8 µg/mL (≈ 18 µM), the MIC90 (K. pneumoniae; [8]) was > 64 µg/mL and the “MIC Range” value (P. granulosum) was 1 to 2 µg/mL. The “MIC Range” value (P. avidum) was 1 to 8 µg/mL, the MIC50 (Salmonella Spp.) was 2 µg/mL (≈ 4.5 µM) and the MIC90 (Salmonella Spp.) was > 64 µg/mL. For the same compound, the MIC (Prevotella spp.; Prevotella spp. 3564) was 1 µg/mL (≈ 2.25 µM), the MIC (Prevotella spp.; Prevotella spp. 3568) was 4 µg/mL (≈ 9 µM) and the MIC (Lactobacillus casei) was 2 µg/mL (≈ 4.5 µM). For the same compound, the MIC50 (P. acnes) was 0.5 µg/mL (≈ 1.13 µM), the MIC90 (P. acnes) was 4 µg/mL (≈ 9 µM) and the MIC50 (P. acnes; [9]) was 1 µg/mL (≈ 2.25 µM). It also gave an MIC90 (P. acnes; [9]) of 2 µg/mL (≈ 4.5 µM), an MIC [7] of 2 µg/mL (≈ 4.5 µM) and an MIC (Bifidobacterium longum) of 2 µg/mL (≈ 4.5 µM). For the same compound, the MIC90 (E. cloacae) was > 64 µg/mL and the MIC90 (S. agalactiae) was > 32 µg/mL.
